{"source": "patent US11174216B2", "about": "“Lipids that increase insulin sensitivity and methods of using the same” (Beth Israel Deaconess Medical Center, Inc., priority 2012, dated 2021)", "key": {"STC-1 cells [1]": {"test_system": "STC-1 cells", "experiment": "ERK phosphorylation in STC-1 cells (immunoblot)", "format": "cell-based", "conditions": "15 minutes", "procedure": "For the experiments summarized in FIG. 50, STC-1 cells were incubated with 9-PAHSA, 5-PAHSA or 9-OAHSA at the indicated concentrations. Cells were harvested and lysed and proteins were separated by SDS PAGE and transferred onto nitrocellulose filters. The phosphorylation of ERK and the amount of total ERK was determined by immunoblotting with antibodies specific for total or phosphor-ERK. DMSO was the control. For ERK phosphorylation, cells were serum deprived overnight and stimulated with FAHFAs or vehicle as indicated for 15 minutes followed by lysis in RIPA buffer and analysis by SDS-PAGE"}, "STC-1 cells [2]": {"test_system": "STC-1 cells", "experiment": "GLP-1 secretion in STC-1 enteroendocrine cells (ELISA)", "format": "cell-based", "procedure": "For the experiments summarized in FIG. 51 STC-1 cells were incubated with vehicle (DMSO), 9-PAHSA, 5-PAHSA or 9-OAHSA at the indicated concentrations or lineolic acid (100 uM) as a positive control. Media was harvested and GLP-1 was measured by ELISA.\nFor the experiments summarized in FIG. 52, the same protocol as described for FIG. 51 was used, except in this experiment a time course was performed. For both FIG. 51 and FIG. 52, for GLP-1 secretion STC1 cells were washed 3× with serum free culture media followed by stimulation with FAHFAs or vehicle at the indicated concentrations and timepoints. Levels of active GLP-1 were measured by ELISA."}, "GPR120": {"target": "T1, GPR120 (Homo sapiens, UniProt Q5NUL3)", "T1 sequence (Q5NUL3 1-361)": "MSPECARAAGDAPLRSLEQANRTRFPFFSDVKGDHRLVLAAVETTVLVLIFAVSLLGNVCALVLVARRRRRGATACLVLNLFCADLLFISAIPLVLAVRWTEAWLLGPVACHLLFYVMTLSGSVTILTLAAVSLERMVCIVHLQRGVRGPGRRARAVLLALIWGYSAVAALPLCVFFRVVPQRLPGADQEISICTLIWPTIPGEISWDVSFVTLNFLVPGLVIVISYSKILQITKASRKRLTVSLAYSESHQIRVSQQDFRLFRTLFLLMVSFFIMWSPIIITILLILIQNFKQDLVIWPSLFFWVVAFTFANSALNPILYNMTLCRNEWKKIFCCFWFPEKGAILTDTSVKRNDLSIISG", "experiment": "PATHHUNTER beta-Arrestin GPCR assay", "format": "cell-based", "source_text": "For the experiments summarized in FIGS. 53-55, the fragment based GPCR assay from DiscoveRx (PATHHUNTER® β-Arrestin assay) was used to as per manufacturer's instructions to determine activation of specific GPCRs as indicated in FIGS. 53-55."}, "[3]": {"test_system": "FA-CoA:HFA acyltransferase activity", "experiment": "FAHFA biosynthesis (FA-CoA:HFA acyltransferase) assay in tissue lysates", "format": "biochemical", "conditions": "10 uM 9-HSA and oleoyl-CoA, increasing doses", "procedure": "In order to understand the biology of the new FAHFA lipid class more completely, experiments were performed to identify an enzyme capable of synthesizing FAHFAs as well. By structural analogy to other lipid metabolites such as diacylglycerols or wax esters, it was hypothesized that hydroxy fatty acids were the immediate precursors to FAHFAs. Candidate acyltransferases were identified by reacting the common biochemical acyl carrier, oleoyl-CoA, with 9-hydroxystearic acid (9-HSA) in the presence of cell lysates or tissue membrane lysates to form 9-OAHSA (Scheme 2; FIG. 61 ).\nAfter first establishing that FA-CoA:HFA acyltransferase activity was membrane-localized in liver (not shown), we isolated membrane fractions from liver or WAT tissue lysate by ultracentrifugation, then resuspended the pellets in PBS buffer and diluted to 1 mg/ml protein concentration. […] The reaction mixtures were extracted with ethyl acetate, concentrated, and reconstituted in 1:1 chloroform:methanol for MS analysis. Formation of 9-OAHSA was measured by MS/MS, with which the appearance of the parent ion m/z 563 was monitored.\nIn light of the above results acyltransferase families that have been reported to have a membrane-bound localization and to have the ability to conjugate FA-CoA to a hydrophobic alcohol were targeted. […]"}, "HepG2 cells": {"test_system": "HepG2 cells", "experiment": "PPAR agonist studies, FAHFA levels in HepG2 cells", "format": "cell-based", "conditions": "0.5 uM and 1.0 uM, 48 hr, cells and media", "procedure": "In this example, HepG2 cells were seeded in 6-well plates. At 80% confluence, cells were treated with two different concentrations [0.5 uM and 1.0 uM] of an agonist of PPAR α (WY14643), δ (CAY10592), or γ (Pioglitazone) for 48 hr in HepG2 media with 2.5% FBS. At the end of incubation, 500 uL of media was collected and the cells were collected in PBS for lipid extraction. Lipids were extracted from both media and cells to quantitate the FAHFA levels by Mass Spec. The results are summarized in FIGS. 33 and 34 for the cells and media, respectively.\nHepG2 cells were seeded in 6-well plate. At 80% confluence, cells were treated with two different concentrations [0.5 μM and 1.0 μM] of PPAR α/δ/γ agonists for 48 h in HepG2 media containing 2.5% fetal bovine serum (PPAR α agonist—WY14643; PPAR δ agonist—CAY10592; PPAR γ agonist—Pioglitazone). At the end of incubation, 500 μL of media and the cells were collected in PBS. Lipids were extracted as per Folch Method from both media and cells to quantitate the FAHFA levels by Mass Spec. Briefly, chloroform and methanol were added to the media or cells in 2:1 ratio and sonicated for 2-3 min and centrifuged at 3000 rpm for 10 min at 4° C. […] Calculated volume of chloroform is added to the dissolve the lipids and 2 μL of injection volume was used to analyze FAHFAs through Mass spec. […]"}, "[4]": {"test_system": "FAHFA hydrolysis activity in liver lysate"}, "[5]": {"test_system": "FAHFA hydrolysis activity in pancreas membrane lysate", "experiment": "FAHFA hydrolysis activity assay, pancreas membrane lysate", "conditions": "pancreas lysate"}, "[6]": {"test_system": "carboxyl ester lipase (CEL)"}}}
{"compound": "CCCCCCCC/C=C\\CCCCCCCC(=O)OC(CCCCCCCCC)CCCCCCCC(=O)O", "note": "(stereo not shown) [9-OAHSA]", "values": [{"measurement": "ERK phosphorylation", "setting": "STC-1 cells [1]", "value": "induce ERK phosphorylation"}, {"measurement": "GLP-1 secretion", "setting": "STC-1 cells [2]", "value": "induce GLP-1 secretion"}, {"measurement": "activation of GPR120", "setting": "GPR120", "value": "but not 9OAHSA, activate GPR120"}]}
{"compound": "O=C(Nc1ccccc1)Nc1ccc(-c2ccc(C(=O)[C@@H]3CCC[C@H]3C(=O)O)cc2)cc1", "note": "[A922500]", "values": [{"measurement": "9-OAHSA levels (FAHFA production)", "setting": "[3]", "value": "no change"}]}
{"compound": "O=C(O)COc1ccc(SCC=C(c2ccc(Br)cc2)c2ccc(Br)cc2)cc1Cl", "note": "[CAY10592]", "values": [{"measurement": "FAHFA production in liver cells", "setting": "HepG2 cells", "value": "stimulate FAHFA production"}]}
{"compound": "CCCCCCCCCCC(C)(C)C(=O)Nc1c(OC)cc(OC)cc1OC", "note": "[CI976]", "values": [{"measurement": "9-OAHSA levels (FAHFA production)", "setting": "[3]", "value": "no change"}]}
{"compound": "C[C@H](CCC(=O)NCCS(=O)(=O)O)[C@H]1CC[C@H]2[C@@H]3[C@H](O)C[C@@H]4C[C@H](O)CC[C@]4(C)[C@H]3C[C@H](O)[C@]12C", "note": "[NaTC, sodium taurocholate, reference compound]", "values": [{"measurement": "effect on FAHFA hydrolysis", "setting": "[4]", "value": "not enhanced"}, {"measurement": "effect on FAHFA hydrolysis", "setting": "[5]", "value": "markedly increased"}, {"measurement": "effect on FAHFA hydrolysis", "setting": "[6]", "value": "enhanced"}]}
{"compound": "Cc1cccc(Nc2cc(Cl)nc(SCC(=O)O)n2)c1C", "note": "[WY14643]", "values": [{"measurement": "FAHFA production in liver cells", "setting": "HepG2 cells", "value": "stimulate FAHFA production"}]}
